Our source for the inhibition values is patent US20100137313A1 (ASTRAZENECA AB, priority 2008, published 2010).

S. pneumoniae Topoisomerase IV ATPase (ParE), sequence (Q59961 whole entry): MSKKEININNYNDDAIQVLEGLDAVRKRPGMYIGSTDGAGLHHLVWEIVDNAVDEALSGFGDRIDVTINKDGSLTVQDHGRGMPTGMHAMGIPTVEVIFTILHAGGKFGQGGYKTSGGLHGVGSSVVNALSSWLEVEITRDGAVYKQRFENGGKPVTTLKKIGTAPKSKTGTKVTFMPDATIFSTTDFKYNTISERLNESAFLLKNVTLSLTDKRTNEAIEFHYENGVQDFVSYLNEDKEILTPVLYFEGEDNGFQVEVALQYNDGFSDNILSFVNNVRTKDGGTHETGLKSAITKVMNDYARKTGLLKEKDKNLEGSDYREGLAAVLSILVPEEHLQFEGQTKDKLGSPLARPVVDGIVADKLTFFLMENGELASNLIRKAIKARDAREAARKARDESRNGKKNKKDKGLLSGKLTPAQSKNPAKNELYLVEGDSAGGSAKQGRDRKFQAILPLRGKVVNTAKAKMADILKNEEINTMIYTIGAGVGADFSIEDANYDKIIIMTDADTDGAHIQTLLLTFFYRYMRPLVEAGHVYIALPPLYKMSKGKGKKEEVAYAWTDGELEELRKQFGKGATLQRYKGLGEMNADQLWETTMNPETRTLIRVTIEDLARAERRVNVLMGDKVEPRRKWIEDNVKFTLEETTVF

The assay deals with S. pneumoniae Topoisomerase IV ATPase (ParE) (Streptococcus pneumoniae serotype 4, UniProt Q59961). The experiment in a line: S. pneumoniae Topoisomerase IV ATPase inhibition. The class given is biochemical. The settings on record: values marked * are an average of two or more data points, read-out: % Inh (13 μM) of S. pneumoniae Topoisomerase IV ATPase. Put shortly:
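S. pneumoniae ParE (1.25 nM) ATPase with 160 μM ATP and 5 μg/ml sheared DNA in pH 8.0 Tris, Mg2+, DTT, Brij-35; phosphate detected by malachite green/molybdate at 650 nm. Normalised to 2% DMSO (0%) and 20 μM EDTA (100%); IC50 from 10 concentrations.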
Regarding `COc1cc(C)cc(Nc2ncc(-c3cnc(OC)c(C(=O)NS(C)(=O)=O)c3)c(-n3nc(C(F)(F)F)cc3C)n2)c1` [Example 857, 2-methoxy-5-{2-[(3-methoxy-5-methylphenyl)amino]-4-[5-methyl-3-(trifluoromethyl)-1H-pyrazol-1-yl]pyrimidin-5-yl}-N-(methylsulfonyl)pyridine-3-carboxamide], the inhibition at 13 µM stood at 100%.
`COc1cc(C)cc(Nc2ncc(-c3cc(C(=O)O)c(=O)n(C)c3)c(-n3ccc(C(F)(F)F)n3)n2)c1` [Example 859, 5-{2-[(3-methoxy-5-methylphenyl)amino]-4-[3-(trifluoromethyl)-1H-pyrazol-1-yl]pyrimidin-5-yl}-1-methyl-2-oxo-1,2-dihydropyridine-3-carboxylic acid]: the inhibition at 13 µM is 100%.
For `COc1cc(C)cc(Nc2ncc(-c3cc(C(=O)O)c(=O)n(C)c3)c(-n3nc(C(F)(F)F)cc3C)n2)c1` [Example 861, 5-{2-[(3-methoxy-5-methylphenyl)amino]-4-[5-methyl-3-(trifluoromethyl)-1H-pyrazol-1-yl]pyrimidin-5-yl}-1-methyl-2-oxo-1,2-dihydropyridine-3-carboxylic acid], the inhibition at 13 µM was determined as 100%.
`CCn1cc(-c2cnc(Nc3cc(C)cc(OC)c3)nc2-n2nc(C(F)(F)F)cc2C)cc(C(=O)O)c1=O` [Example 863, 1-ethyl-5-{2-[(3-methoxy-5-methylphenyl)amino]-4-[5-methyl-3-(trifluoromethyl)-1H-pyrazol-1-yl]pyrimidin-5-yl}-2-oxo-1,2-dihydropyridine-3-carboxylic acid]: the inhibition at 13 µM was determined as 100%.
The value for `COc1cc(Nc2ncc(-c3cnc(OC)c(C#N)c3)c(-n3nc(C(F)(F)F)cc3C)n2)cc(OC)c1` [Example 868, 5-(2-(3,5-dimethoxyphenylamino)-4-(5-methyl-3-(trifluoromethyl)-1H-pyrazol-1-yl)pyrimidin-5-yl)-2-methoxynicotinonitrile] was 6%; that for `COCC(COC)Oc1ncc(-c2cnc(Nc3ccc(F)c(Cl)c3)nc2-n2ccc(C(F)(F)F)n2)cc1C(=O)O` [Example 869, 5-(2-(3-chloro-4-fluorophenylamino)-4-(3-(trifluoromethyl)-1H-pyrazol-1-yl)pyrimidin-5-yl)-2-(1,3-dimethoxypropan-2-yloxy)nicotinic acid] was 93%; that for `COCC(COC)Oc1ncc(-c2cnc(Nc3ccc(F)c(Cl)c3)nc2-n2nc(C(F)(F)F)cc2C)cc1C(=O)O` [Example 870, 5-(2-(3-chloro-4-fluorophenylamino)-4-(5-methyl-3-(trifluoromethyl)-1H-pyrazol-1-yl)pyrimidin-5-yl)-2-(1,3-dimethoxypropan-2-yloxy)nicotinic acid] was 100%.
As for `Cc1cc(C(F)(F)F)nn1-c1nc(Nc2ccc(F)c(Cl)c2)ncc1-c1cnc(OCCc2ccncc2)c(C(=O)O)c1` [Example 871, 5-(2-(3-chloro-4-fluorophenylamino)-4-(5-methyl-3-(trifluoromethyl) 1H-pyrazol-1-yl)pyrimidin-5-yl)-2-(2-(pyridin-4-yl)ethoxy)nicotinic acid], the inhibition at 13 µM was found to be 100%.
Regarding `O=C(O)c1cc(-c2cnc(Nc3ccc(F)c(Cl)c3)nc2-n2ccc(C(F)(F)F)n2)cnc1OCCc1ccncc1` [Example 872, 5-(2-(3-chloro-4-fluorophenylamino)-4-(3-(trifluoromethyl)-1H-pyrazol-1-yl)pyrimidin-5-yl)-2-(2-(pyridin-4-yl)ethoxy)nicotinic acid], the inhibition at 13 µM worked out at 100%.
`COc1cc(Nc2ncc(-c3cnc(OC)c(-c4nnn[nH]4)c3)c(-n3nc(C(F)(F)F)cc3C)n2)cc(OC)c1` [Example 873, N-(3,5-dimethoxyphenyl)-5-(6-methoxy-5-(1H-tetrazol-5-yl)pyridin-3-yl)-4-(5-methyl-3-(trifluoromethyl)-1H-pyrazol-1-yl)pyrimidin-2-amine]: the inhibition at 13 µM was 100%.
For `CS(=O)(=O)NC(=O)c1cncc(-c2cnc(Nc3ccc(F)c(Cl)c3)nc2-n2ccc(C(F)(F)F)n2)c1` [Example 874, 5-(2-(3-chloro-4-fluorophenylamino)-4-(3-(trifluoromethyl)-1H-pyrazol-1-yl)pyrimidin-5-yl)-N-(methylsulfonyl)nicotinamide], the inhibition at 13 µM came to 100%.
As for `O=C(O)/C=C/c1cccc(-c2cnc(Nc3ccc(F)c(Cl)c3)nc2-n2ccc(C3CC3)n2)c1` [Example 875, (E)-3-(3-(2-(3-chloro-4-fluorophenylamino)-4-(3-cyclopropyl-1H-pyrazol-1-yl)pyrimidin-5-yl)phenyl)acrylic acid], the inhibition at 13 µM was determined as 98%.
Then `COc1cccc(-c2cnc(Nc3ccc(F)c(Cl)c3)nc2-n2ccc(C(F)(F)F)n2)n1` [Example 876, N-(3-chloro-4-fluorophenyl)-5-(6-methoxypyridin-2-yl)-4-(3-(trifluoromethyl)-1H-pyrazol-1-yl)pyrimidin-2-amine], with 0%; and `O=C(O)c1cccc(-c2cnc(Nc3ccc(F)c(Cl)c3)nc2-n2ccc(C(F)(F)F)n2)n1` [Example 877, 6-(2-(3-chloro-4-fluorophenylamino)-4-(3-(trifluoromethyl)-1H-pyrazol-1-yl)pyrimidin-5-yl)picolinic acid], with 100%.
The value for `CN(C(=O)c1cccc(-c2cnc(Nc3ccc(F)c(Cl)c3)nc2-n2ccc(C(F)(F)F)n2)c1)S(C)(=O)=O` [Example 878, 3-(2-(3-chloro-4-fluorophenylamino)-4-(3-(trifluoromethyl)-1H-pyrazol-1-yl)pyrimidin-5-yl)-N-methyl-N-(methylsulfonyl)benzamide] was 88%; that for `Cc1cc(C(=O)O)nc(-c2cnc(Nc3ccc(F)c(Cl)c3)nc2-n2ccc(C(F)(F)F)n2)n1` [Example 879, 2′-(3-chloro-4-fluorophenylamino)-6-methyl-4′-(3-(trifluoromethyl)-1H-pyrazol-1-yl)-2,5′-bipyrimidine-4-carboxylic acid] was 91%.
In the case of `COc1cc(Nc2ncc(-c3cccc(/C=C/C(=O)O)c3)c(-n3nc(C(F)(F)F)cc3C)n2)cc(C(F)(F)F)c1` [Example 880, (E)-3-(3-(2-(3-methoxy-5-(trifluoromethyl)phenylamino)-4-(5-methyl-3-(trifluoromethyl)-1H-pyrazol-1-yl)pyrimidin-5-yl)phenyl)acrylic acid], the inhibition at 13 µM was found to be 91%.
Regarding `COc1cc(Nc2ncc(-c3cncc(C(=O)CS(C)(=O)=O)c3)c(-n3nc(C(F)(F)F)cc3C)n2)cc(C(F)(F)F)c1` [Example 881, 1-(5-(2-(3-methoxy-5-(trifluoromethyl)phenylamino)-4-(5-methyl-3-(trifluoromethyl)-1H-pyrazol-1-yl)pyrimidin-5-yl)pyridin-3-yl)-2-(methylsulfonyl)ethanone], the inhibition at 13 µM turned out to be 97%.
`COc1cc(Nc2ncc(-c3cncnc3)c(-n3nc(C(F)(F)F)cc3C)n2)cc(C(F)(F)F)c1` [Example 882, N-(3-methoxy-5-(trifluoromethyl)phenyl)-4-(5-methyl-3-(trifluoromethyl)-1H-pyrazol-1-yl)-5,5′-bipyrimidin-2-amine]: the inhibition at 13 µM was 100%.
For the compound `COc1cc(Nc2ncc(-c3ccc(C(=O)O)s3)c(-n3nc(C(F)(F)F)cc3C)n2)cc(C(F)(F)F)c1` [Example 883, 5-(2-(3-methoxy-5-(trifluoromethyl)phenylamino)-4-(5-methyl-3-(trifluoromethyl)-1H-pyrazol-1-yl)pyrimidin-5-yl)thiophene-2-carboxylic acid], the inhibition at 13 µM worked out at 99%.
The value for `COc1cc(Nc2ncc(-c3cccnc3)c(-n3nc(C(F)(F)F)cc3C)n2)cc(C(F)(F)F)c1` [Example 884, N-(3-methoxy-5-(trifluoromethyl)phenyl)-4-(5-methyl-3-(trifluoromethyl)-1H-pyrazol-1-yl)-5-(pyridin-3-yl)pyrimidin-2-amine] was 100%; that for `COc1cc(Nc2ncc(-c3cnc(OC)nc3)c(-n3nc(C(F)(F)F)cc3C)n2)cc(C(F)(F)F)c1` [Example 885, 2′-methoxy-N-(3-methoxy-5-(trifluoromethyl)phenyl)-4-(5-methyl-3-(trifluoromethyl)-1H-pyrazol-1-yl)-5,5′-bipyrimidin-2-amine] was 100%; that for `COc1cc(F)cc(Nc2ncc(-c3ccc(C(=O)O)s3)c(-n3ccc(C(F)(F)F)n3)n2)c1` [Example 887, 5-(2-(3-fluoro-5-methoxyphenylamino)-4-(3-(trifluoromethyl)-1H-pyrazol-1-yl)pyrimidin-5-yl)thiophene-2-carboxylic acid] was 100%.
Then `N#Cc1cc(-c2cnc(Nc3ccc(F)c(Cl)c3)nc2-n2ccc(C(F)(F)F)n2)ccn1` [Example 890, 4-(2-(3-chloro-4-fluorophenylamino)-4-(3-(trifluoromethyl)-1H-pyrazol-1-yl)pyrimidin-5-yl)picolinonitrile], with 91%.
For the compound `COc1cc(F)cc(Nc2ncc(-c3ccc(C(=O)O)o3)c(-n3ccc(C(F)(F)F)n3)n2)c1` [Example 892, 5-(2-(3-fluoro-5-methoxyphenylamino)-4-(3-(trifluoromethyl)-1H-pyrazol-1-yl)pyrimidin-5-yl)furan-2-carboxylic acid], the inhibition at 13 µM came out at 100%.
Then `COc1cc(F)cc(Nc2ncc(-c3cccc(C(=O)O)c3)c(-n3ccc(C(F)(F)F)n3)n2)c1` [Example 893, 3-(2-(3-fluoro-5-methoxyphenylamino)-4-(3-(trifluoromethyl)-1H-pyrazol-1-yl)pyrimidin-5-yl)benzoic acid], with 99%; and `COc1cc(F)cc(Nc2ncc(-c3cnc(OC)c(C(=O)NS(C)(=O)=O)c3)c(-n3ccc(C(F)(F)F)n3)n2)c1` [Example 897, 5-(2-(3-fluoro-5-methoxyphenylamino)-4-(3-(trifluoromethyl)-1H-pyrazol-1-yl)pyrimidin-5-yl)-2-methoxy-N-(methylsulfonyl)nicotinamide], with 100%.
